In PubChem BioAssay AID1259407 (Chemical Carcinogenesis Research Information System (CCRIS), 2018) one finds mutagenic call data, which are given here for two compounds.

Structures are written as SMILES. Calls of active or inactive are those of the source. No rule for the calls is given here.

For the data set, the system named is CCRIS mutagenicity, Ames/micronucleus/aberration tests. Put plainly: CCRIS mutagenicity studies. To be noted: Test System: AMES SALMONELLA TYPHIMURIUM

For `O=C(O)CC(Cl)C(=O)O` (configuration not stated), the mutagenic call reads like this: (Strain/Indicator: TA98, Metabolic Activation: NONE) “inactive; negative”; (Strain/Indicator: TA98, Metabolic Activation: RAT, LIVER, S-9, AROCLOR 1254) “inactive; negative”; (Strain/Indicator: TA100, Metabolic Activation: NONE) “inactive; negative”; (Strain/Indicator: TA100, Metabolic Activation: RAT, LIVER, S-9, AROCLOR 1254) “inactive; negative”; (Strain/Indicator: TA102, Metabolic Activation: NONE) “inactive; negative”; (Strain/Indicator: TA102, Metabolic Activation: RAT, LIVER, S-9, AROCLOR 1254) “inactive; negative”. In addition, the mutagenic call reads like this: (Strain/Indicator: TA104, Metabolic Activation: NONE) “inactive; negative”; (Strain/Indicator: TA104, Metabolic Activation: RAT, LIVER, S-9, AROCLOR 1254) “inactive; negative”.
With `Cc1c2cccc(C)c2nc2c1ccc1ccccc12`, the mutagenic call is, setting by setting: (Strain/Indicator: TA97A, Metabolic Activation: NONE, Method: PREINCUBATION) “inactive; negative”; (Strain/Indicator: TA98, Metabolic Activation: NONE, Method: PREINCUBATION) “active; positive”; (Strain/Indicator: TA100, Metabolic Activation: NONE, Method: PREINCUBATION) “inactive; negative”; (Strain/Indicator: TA102, Metabolic Activation: NONE, Method: PREINCUBATION) “active; positive”.
